Data from patent US8710237B2, “Small molecule inhibitors of kynurenine-3-monooxygenase” (The J. David Gladstone Institute, priority 2006, dated 2014).
Marks after values point to notes of the source that are not given here.

Assays:
[1] = system: kynurenine-3-monooxygenase; assay: KMO inhibition, radiometric assay (Erickson et al.); type: biochemical; conditions: 10 μM compound
Procedure: The KMO inhibiting activities of the compounds of the present invention were evaluated using standard methods. See Erickson et al., A Radiometric Assay for Kynurenine 3-Hydroxylase Based on the Release of ^3H2O During Hydroxylation of L-[3,5-^3H]-Kynurenine, Anal. Biochem. 1992, 205, 257-262, the disclosure of which is hereby incorporated by reference.
The IC50 value is the half maximal inhibitory concentration and represents the concentration of an inhibitor that is required for 50% inhibition of an enzyme activity and the percent inhibition measures the amount of enzyme activity inhibited at a given concentration of compound.

[2] = system: R6/2 model of Huntington's disease; assay: Survival in a mouse model of Huntington's disease (FIG. 13); type: in vivo; conditions: R6/2 mice
Excerpt: The structure of the compound M is

3-HK in the brain = assay: In vivo comparison: 3-HK in the brain after oral administration (FIG. 12)
Excerpt: The structure of the compound 61-8048 is as below:

Row | % inhibition at 10 μM [1] | melting point [°C] | Structure (SMILES) | also measured
1 | 52% | – | COc1ccc(S(=O)(=O)N(C)c2nc(-c3cccc([N+](=O)[O-])c3)cs2)cc1OC [T, 3,4-dimethoxy-N-[4-(3-nitrophenyl)thiazol-2-yl]-N-(methyl)benzenesulfonamide] | –
2 | – | – | COc1ccc(S(=O)(=O)N(CN2CCCCC2)c2nc(-c3cccc([N+](=O)[O-])c3)cs2)cc1OC [Compound M] | magnitude of the effect of protection (survival) [2]: equal to or greater to that reported for any single agent administered in this model
3 | – | – | COc1ccc(S(=O)(=O)Nc2nc(-c3cccc([N+](=O)[O-])c3)cs2)cc1OC [Compound 61-8048, 3,4-Dimethoxy-N-[4-(3-nitrophenyl)thiazol-2-yl]benzenesulfonamide, reference compound] | effect on survival ([2]; 100 mg/kg/day, not shown in the figure): did not have a significant effect on survival; decrease of 3-HK in the brain (3-HK in the brain): does not decrease
4 | 73% | 143 to 145 | CCCN(C)Cc1sc(NS(=O)(=O)c2ccc(OC)c(OC)c2)nc1-c1cccc([N+](=O)[O-])c1 [G, 3,4-dimethoxy-N-[4-(3-nitrophenyl)-5-(methylpropylamino)methyl-1,3-thiazole-2-yl]benzenesulfonamide] | –
5 | 9* % | 198 to 200 | COc1ccc(S(=O)(=O)Nc2nc(-c3cccc([N+](=O)[O-])c3)c(CN3CCCC3)s2)cc1OC [B, 3,4-dimethoxy-N-[4-(3-nitrophenyl)-5-(pyrrolidin-1-ylmethyl)-1,3-thiazole-2-yl]benzenesulfonamide] | –
6 | 81% | – | CCOC(=O)CN(c1nc(-c2cccc([N+](=O)[O-])c2)cs1)S(=O)(=O)c1ccc(OC)c(OC)c1 [U, 3,4-dimethoxy-N-[4-(3-nitrophenyl)thiazol-2-yl]-N-[(ethylcarboxylate)methyl]benzenesulfonamide] | –
7 | 64% | 143 | COc1ccc(S(=O)(=O)Nc2nc(-c3cccc([N+](=O)[O-])c3)c(CN3CCOCC3)s2)cc1OC [D, 3,4-dimethoxy-N-[4-(3-nitrophenyl)-5-morpholinomethyl-1,3-thiazole-2-yl]benzenesulfonamide] | –
8 | 24% | – | COc1ccc(S(=O)(=O)Nc2nc(-c3cccc([N+](=O)[O-])c3)c(CN3CCCCC3)s2)cc1OC [C, 3,4-dimethoxy-N-[4-(3-nitrophenyl)-5-(piperidin-1-ylmethyl)-1,3-thiazole-2-yl]benzenesulfonamide] | –
9 | 84% | – | CCOC(=O)N(c1nc(-c2cccc([N+](=O)[O-])c2)cs1)S(=O)(=O)c1ccc(OC)c(OC)c1 [V, 3,4-dimethoxy-N-[4-(3-nitrophenyl)thiazol-2-yl]-N-(ethylcarboxylate)benzenesulfonamide] | –
10 | 58% | 203 | COc1ccc(S(=O)(=O)Nc2nc(-c3cccc([N+](=O)[O-])c3)c(CN(C)C)s2)cc1OC [A, 3,4-dimethoxy-N-[4-(3-nitrophenyl)-5-dimethylaminomethyl-1,3-thiazole-2-yl]benzenesulfonamide] | –
11 | 6* % | 215 to 217 | COc1ccc(S(=O)(=O)Nc2nc(-c3cccc([N+](=O)[O-])c3)c(CN3CCN(C)CC3)s2)cc1OC [E, 3,4-dimethoxy-N-[4-(3-nitrophenyl)-5-((4-methylpiperazin-1-yl)methyl)-1,3-thiazole-2-yl]benzenesulfonamide] | –
12 | – | 136 | COc1ccc(S(=O)(=O)Nc2nc(-c3cccc([N+](=O)[O-])c3)c(CN3CCSCC3)s2)cc1OC | –
13 | 74% | 165 to 168 | CCN(CC)Cc1sc(NS(=O)(=O)c2ccc(OC)c(OC)c2)nc1-c1cccc([N+](=O)[O-])c1 [F, 3,4-dimethoxy-N-[4-(3-nitrophenyl)-5-(diethylamino)methyl-1,3-thiazole-2-yl]benzenesulfonamide] | –
14 | 85% | – | COC(=O)N(c1nc(-c2cccc([N+](=O)[O-])c2)cs1)S(=O)(=O)c1ccc(OC)c(OC)c1 [W, 3,4-dimethoxy-N-[4-(3-nitrophenyl)thiazol-2-yl]-N-(methylcarboxylate)benzenesulfonamide] | –
